What was measured:
PPAR-γ = biological target: T1, PPAR-γ (Homo sapiens, UniProt P37231); test: cell-based PPAR transactivation (luciferase) assay, PPAR-γ; conditions: for activation at 10 µM: 24 h, compounds 10 µM, relative to maximum activation with pioglitazone (10 µM), PPAR-Luc in CV-1 cells, read-out: % max PPAR-γ
T1 construct: host or cells: CV-1
T1 sequence (P37231 1-505): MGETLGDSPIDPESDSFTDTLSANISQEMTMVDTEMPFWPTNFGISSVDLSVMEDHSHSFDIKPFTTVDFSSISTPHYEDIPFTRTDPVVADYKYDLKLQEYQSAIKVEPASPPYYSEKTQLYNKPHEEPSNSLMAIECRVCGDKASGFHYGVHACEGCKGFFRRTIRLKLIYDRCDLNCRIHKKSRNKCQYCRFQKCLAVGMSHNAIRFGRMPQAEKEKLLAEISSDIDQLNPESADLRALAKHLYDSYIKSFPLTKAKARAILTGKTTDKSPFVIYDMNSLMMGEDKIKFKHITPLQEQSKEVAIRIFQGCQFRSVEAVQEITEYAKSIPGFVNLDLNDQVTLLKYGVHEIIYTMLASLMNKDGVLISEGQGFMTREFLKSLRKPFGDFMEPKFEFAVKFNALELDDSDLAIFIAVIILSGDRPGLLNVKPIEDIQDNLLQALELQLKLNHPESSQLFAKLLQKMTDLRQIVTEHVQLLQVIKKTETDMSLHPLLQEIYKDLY
Protocol: (§1) The PPAR activities of the synthesized dichloroanilide-linked indole analogs were assessed using a standard cell-based transactivation assay in CV-1 cells. GW7647 [42], pioglitazone, and GW0742 [43] were used as positive controls for PPAR-α, -γ, and -δ, respectively. These three positive controls presented the maximum activation for each PPAR subtype. The activity of the compounds was presented as the activation percentage (%) relative to the maximum values of the positive controls at the indicated concentrations.
(§2) Transient transfection and luciferase assay was carried out. CV-1 cells were seeded in 48-well plates at a density of 1.5 × 10^5 cells/well in Dulbecco’s modified Eagle’s medium (DMEM) with containing 10% fetal bovine serum (FBS). The cells were transiently transfected with plasmid mixtures containing PPAR-α/γ expression vector and tk-PPRE-luciferase (Luc) vector for 6 h and then treated with the samples for 24 h. HEK293t cells were seeded in a 60-mm dish at a density of 1.5 × 10^6 cells/dish. After transfection with the plasmid mixtures containing PPAR-δ expression vector and Luc vector for 6 h, the cells were transferred to a 96-well plate and treated with the samples. To normalize the transfection efficiency, a β-galactosidase plasmid was cotransfected. The luciferase activity in the cell lysates was measured using a luciferase assay system (Promega Corp., Madison, WI, USA), and the β-galactosidase activity was determined by measuring the absorbance at 410 nm using an ELISA plate reader. The data were expressed as the relative luciferase activity divided by the β-galactosidase activity. All constructs were kindly gifted by Dr. Ronald M. Evans at The Salk Institute (La Jolla, CA, USA).

PPAR-δ [1] = biological target: T2, PPAR-δ (Homo sapiens, UniProt Q03181); test: cell-based PPAR transactivation (luciferase) assay, PPAR-δ; conditions: compounds 10 µM; relative to maximum activation with GW0742 (10 μM); PPAR-Luc in HEK293t cells; read-out: % max PPAR-δ
T2 construct: host or cells: HEK293t
T2 sequence (Q03181 1-441): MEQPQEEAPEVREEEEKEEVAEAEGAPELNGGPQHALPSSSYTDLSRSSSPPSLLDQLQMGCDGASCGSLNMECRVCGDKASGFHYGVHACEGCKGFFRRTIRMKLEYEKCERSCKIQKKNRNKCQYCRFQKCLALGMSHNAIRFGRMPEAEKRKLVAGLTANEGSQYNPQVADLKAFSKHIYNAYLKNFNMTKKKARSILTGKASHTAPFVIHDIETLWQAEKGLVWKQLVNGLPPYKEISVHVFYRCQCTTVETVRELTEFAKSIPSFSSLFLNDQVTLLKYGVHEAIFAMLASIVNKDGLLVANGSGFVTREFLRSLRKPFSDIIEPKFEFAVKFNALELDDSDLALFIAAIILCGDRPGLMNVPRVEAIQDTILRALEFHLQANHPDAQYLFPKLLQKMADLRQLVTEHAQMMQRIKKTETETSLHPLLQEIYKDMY
Protocol: as §1, §2

PPAR-α = biological target: T3, PPAR-α (Homo sapiens, UniProt Q07869); test: TR-FRET LanthaScreen PPAR coactivator recruit assay, PPAR-α (PGC1a peptide); type: biochemical
T3 construct: purchased Invitrogen / Thermo Fisher Scientific (assay service)
T3 sequence (Q07869 239-466 limits assumed): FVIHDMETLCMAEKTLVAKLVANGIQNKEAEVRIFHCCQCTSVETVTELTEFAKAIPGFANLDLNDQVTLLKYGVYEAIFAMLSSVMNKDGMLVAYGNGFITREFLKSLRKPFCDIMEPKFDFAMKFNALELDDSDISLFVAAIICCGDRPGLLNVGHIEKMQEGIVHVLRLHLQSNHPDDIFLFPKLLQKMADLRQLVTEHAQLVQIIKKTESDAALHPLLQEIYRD
Source text: (§3) Binding of agonist to the PPAR LBD causes a conformational change around helix 12 in the LBD, resulting in higher affinity for the coactivator peptide. When the terbium label on the anti-GST antibody complexed with PPAR is excited at 340 nm, energy is transferred to the fluorescein label on the coactivator peptide and detected as emission at 520 nm. […] Based on the biology of the PPAR-coactivator peptide interaction, this ligand EC50 is a composite value representing the amount of ligand required to bind to receptor, effect a conformational change, and recruit coactivator peptide. Potency of compounds show similar order to their activity (Table 3). […] Ligands such as TZDs show little or no binding to PPAR-δ. Compound 11 and 15 have ortho or meta substituted benzoic acid as an acidic head group. Their acidic head groups might seem to be too large to fit within the narrow PPAR-δ pocket. In contrast, the compound 1 and 2 contains an acetic acid head group that complements the narrow PPAR-δ ligand binding. […] The potency and selectivity of compound 11 could be explained by harmonization of steric effect of acidic head group, length and rigidity of hydrophobic tail, and properly tuned aromatic linker system.
(§4) EC50 of compounds were determined by recruitment of transcriptional coactivators using the TR-FRET based Lanthascreen coactivator assays (Invitrogen, Carlsbad, CA, USA). Which was serviced by Thermo Fisher Scientific (Medicon, WI, USA) according to the LanthaScreen TR-FRET coregulator protocol and assay conditions. Coregulator peptide PGC1a, TRAP220/DRIP2 and C33 was used for the coactivator recruit assay of PPAR-α, -γ, and -δ, respectively.

PPAR-δ [2] = biological target: T4, PPAR-δ (Homo sapiens, UniProt Q03181); test: TR-FRET LanthaScreen PPAR coactivator recruit assay, PPAR-δ (C33 peptide); type: biochemical
T4 construct: purchased Invitrogen / Thermo Fisher Scientific (assay service)
T4 sequence (Q03181 211-439 limits assumed): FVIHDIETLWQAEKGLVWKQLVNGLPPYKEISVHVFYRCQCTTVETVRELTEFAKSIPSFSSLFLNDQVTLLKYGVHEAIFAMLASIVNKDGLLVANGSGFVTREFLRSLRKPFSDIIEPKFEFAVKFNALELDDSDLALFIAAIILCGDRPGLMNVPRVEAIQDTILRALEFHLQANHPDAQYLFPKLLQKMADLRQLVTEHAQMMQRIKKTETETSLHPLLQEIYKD
Source text: as §3, §4

| activation at 10 µM (PPAR-γ) | PPAR-γ activity relative to that of pioglitazone (PPAR-γ; cell-based reporter assay) | activation at 10 µM (PPAR-δ [1]) | EC50 (PPAR-α) | EC50 (PPAR-δ [2]) | Structure (SMILES) |
| --- | --- | --- | --- | --- | --- |
| 189.2 ± 1.67% | approximately 2 fold | 94.86 ± 0.2% | 3.87 µM | 32.6 µM | O=C(COc1ccc2c(ccn2Cc2ccccc2C(=O)O)c1)Nc1ccc(Cl)cc1Cl [Compound 12, 2-((5-(2-((2,4-Dichlorophenyl)amino)-2-oxoethoxy)-1H-indol-1-yl)methyl)benzoic acid] |
| 74.5 ± 0.94% | – | 86.7 ± 0.53% | 16.9 µM | > 100 µM | O=C(COc1ccc2ccn(Cc3ccccc3C(=O)O)c2c1)Nc1ccc(Cl)cc1Cl [Compound 13, 2-((6-(2-((2,4-Dichlorophenyl)amino)-2-oxoethoxy)-1H-indol-1-yl)methyl)benzoic acid] |
| 126.5 ± 0.92% | – | 86.09 ± 0.31% | > 100 µM | > 100 µM | O=C(COc1ccc2ccn(Cc3cccc(C(=O)O)c3)c2c1)Nc1ccc(Cl)cc1Cl [Compound 15, 3-((6-(2-((2,4-Dichlorophenyl)amino)-2-oxoethoxy)-1H-indol-1-yl)methyl)benzoic acid] |
| 93.2 ± 0.59% | – | 75.88 ± 0.35% | > 100 µM | 28.1 µM | O=C(COc1ccc2c(c1)c(Cc1ccccc1)cn2Cc1ccccc1C(=O)O)Nc1ccc(Cl)cc1Cl [Compound 18, 2-((3-Benzyl-5-(2-((2,4-dichlorophenyl)amino)-2-oxoethoxy)-1H-indol-1-yl)methyl)benzoic acid] |

Reference: paper PMC6213020, “Identification of a Novel PPAR-γ Agonist through a Scaffold Tuning Approach” (International Journal of Molecular Sciences, 2018)
